Measurements as given in publication PMC10533412, “Phosphoantigens glue butyrophilin 3A1 and 2A1 to activate Vγ9Vδ2 T cells” (Nature, 2023).
Values joined by “and” are separate entries in the source; they are usually repeats but may differ in a detail not shown here. Identical values can stand only once. Like-named read-outs stand apart in the source and are kept apart here.

Test system: BTN2A−/− MIA PaCa-2 (BTN2A1/BTN2A2 KO) cells
Test: Cell killing assay with BTN2A−/− MIA PaCa-2 (BTN2A1/BTN2A2 KO) cells expressing BTN2A1/BTN2A2 variants
Settings: for Cytotoxicity of Vγ9Vδ2 T cells (percentage of specific lysis): replicates; for EC50: Homo sapiens
[1] = Ext. Fig. 6d, cells expressing 2A2 G352Y354QR/M506T/W374R, three-parameter fit
[2] = Ext. Fig. 6d, cells expressing 2A2 G352Y354QR, three-parameter fit
[3] = Ext. Fig. 6d, cells expressing 2A2 M506T, three-parameter fit
[4] = Ext. Fig. 6d, cells expressing 2A2 W374R/M506T, three-parameter fit
[5] = Ext. Fig. 6d, cells expressing 2A2 W374R, three-parameter fit
[6] = Ext. Fig. 6d, cells expressing 2A2 WT, three-parameter fit

**Q.** C/C(=C\COP(=O)(O)OP(=O)(O)O)CO [Compound 1, (E)-4-hydroxy-3-methylbut-2-en-1-yl diphosphate] was tested. Which “Span (best-fit value)” value [1] did it give?
**A.** Its value is 22.27.

**Q.** And the “Top (best-fit value)” value [1]?
**A.** The value was 54.4.

**Q.** What about the “Bottom (best-fit value)” value [2] of the same molecule?
**A.** The value was 19.82.

**Q.** What about the “Span (best-fit value)” value [2] of the same molecule?
**A.** The value was 7.278.

**Q.** What about the “Top (best-fit value)” value [2] of the same molecule?
**A.** The value was 27.1.

**Q.** What about the “Bottom (best-fit value)” value [3] of the same molecule?
**A.** The value was 17.84.

**Q.** What about the “Span (best-fit value)” value [3] of the same molecule?
**A.** Its value is 32.36.

**Q.** What about the “Top (best-fit value)” value [3] of the same molecule?
**A.** Its value is 50.2.

**Q.** What about the “Bottom (best-fit value)” value [4] of the same molecule?
**A.** Its value is 21.03.

**Q.** What about the “Span (best-fit value)” value [4] of the same molecule?
**A.** Its value is 27.17.

**Q.** What about the “Top (best-fit value)” value [4] of the same molecule?
**A.** The value was 48.19.

**Q.** What about the “Bottom (best-fit value)” value [5] of the same molecule?
**A.** The value was 17.13.

**Q.** What about the “Span (best-fit value)” value [5] of the same molecule?
**A.** Its value is 18.41.

**Q.** And the “Top (best-fit value)” value [5]?
**A.** Its value is 35.54.

**Q.** What about the “Bottom (best-fit value)” value [6] of the same molecule?
**A.** The value was 21.2.

**Q.** What about the “Span (best-fit value)” value [6] of the same molecule?
**A.** The value was 14.17.

**Q.** And the “Top (best-fit value)” value [6]?
**A.** Its value is 35.37.

**Q.** What about the “Cytotoxicity of Vγ9Vδ2 T cells (percentage of specific lysis)” value (HMBPP log concentration -4, 2A1 WT cells) of the same molecule?
**A.** Its value is 70.1646% and 71.1001% and 71.513%.

**Q.** And the “Cytotoxicity of Vγ9Vδ2 T cells (percentage of specific lysis)” value (HMBPP log concentration -4, 2A1 ∆C cells)?
**A.** Its value is 41.112% and 41.0173% and 41.0139%.

**Q.** What about the “Cytotoxicity of Vγ9Vδ2 T cells (percentage of specific lysis)” value (HMBPP log concentration -5, 2A1 WT cells) of the same molecule?
**A.** The value was 64.2316% and 64.2674% and 65.8786%.

**Q.** And the “Cytotoxicity of Vγ9Vδ2 T cells (percentage of specific lysis)” value (HMBPP log concentration -5, 2A1 ∆C cells)?
**A.** The value was 23.0147% and 25.2364% and 24.5941%.

**Q.** What about the “Cytotoxicity of Vγ9Vδ2 T cells (percentage of specific lysis)” value (HMBPP log concentration -6, 2A1 WT cells) of the same molecule?
**A.** Its value is 56.2518% and 58.0065% and 60.1294%.

**Q.** What about the “Cytotoxicity of Vγ9Vδ2 T cells (percentage of specific lysis)” value (HMBPP log concentration -6, 2A1 ∆C cells) of the same molecule?
**A.** Its value is 18.5277% and 22.0034% and 20.9688%.

**Q.** And the “Cytotoxicity of Vγ9Vδ2 T cells (percentage of specific lysis)” value (HMBPP log concentration -7, 2A1 WT cells)?
**A.** The value was 48.0249% and 51.1234% and 56.1132%.

**Q.** And the “Cytotoxicity of Vγ9Vδ2 T cells (percentage of specific lysis)” value (HMBPP log concentration -7, 2A1 ∆C cells)?
**A.** Its value is 26.9403% and 18.9725% and 19.5843%.

**Q.** What about the “Cytotoxicity of Vγ9Vδ2 T cells (percentage of specific lysis)” value (HMBPP log concentration -8, 2A1 WT cells) of the same molecule?
**A.** Its value is 44.2956% and 44.0311% and 51.5761%.

**Q.** What about the “Cytotoxicity of Vγ9Vδ2 T cells (percentage of specific lysis)” value (HMBPP log concentration -8, 2A1 ∆C cells) of the same molecule?
**A.** The value was 23.996% and 19.5568% and 15.4363%.

**Q.** And the “Cytotoxicity of Vγ9Vδ2 T cells (percentage of specific lysis)” value (HMBPP log concentration -9, 2A1 WT cells)?
**A.** Its value is 35.2231% and 37.6052% and 42.4431%.

**Q.** What about the “Cytotoxicity of Vγ9Vδ2 T cells (percentage of specific lysis)” value (HMBPP log concentration -9, 2A1 ∆C cells) of the same molecule?
**A.** Its value is 20.428% and 19.6068% and 15.0611%.

**Q.** What about the “Cytotoxicity of Vγ9Vδ2 T cells (percentage of specific lysis)” value (HMBPP log concentration -10, 2A1 WT cells) of the same molecule?
**A.** The value was 29.643% and 30.0604% and 32.9175%.

**Q.** And the “Cytotoxicity of Vγ9Vδ2 T cells (percentage of specific lysis)” value (HMBPP log concentration -10, 2A1 ∆C cells)?
**A.** The value was 15.4573% and 16.0868% and 15.1497%.

**Q.** What about the “Cytotoxicity of Vγ9Vδ2 T cells (percentage of specific lysis)” value (HMBPP log concentration -11, 2A1 WT cells) of the same molecule?
**A.** The value was 26.3218% and 25.6969% and 24.6851%.

**Q.** What about the “Cytotoxicity of Vγ9Vδ2 T cells (percentage of specific lysis)” value (HMBPP log concentration -11, 2A1 ∆C cells) of the same molecule?
**A.** The value was 16.8095% and 15.8259% and 16.2096%.

**Q.** And the EC50 (MIA PaCa-2, 144 h, Ext. Fig. 6d, cells expressing 2A1 WT, three-parameter fit)?
**A.** The EC50 was 90.3 nM.

**Q.** What about the EC50 (MIA PaCa-2, 144 h, Ext. Fig. 6d, cells expressing 2A2 G352Y354QR/M506T/W374R, three-parameter fit) of the same molecule?
**A.** Its EC50 is 176 nM.

**Q.** And the EC50 (MIA PaCa-2, 144 h, Ext. Fig. 6d, cells expressing 2A2 M506T, three-parameter fit)?
**A.** The EC50 was 266 nM.

**Q.** And the EC50 (MIA PaCa-2, 144 h, Ext. Fig. 6d, cells expressing 2A2 W374R/M506T, three-parameter fit)?
**A.** Its EC50 is 191 nM.

**Q.** And the EC50 (MIA PaCa-2, 144 h, read-out: LogEC50, Ext. Fig. 6d (converted), cells expressing 2A1 WT, log(Concentration)/M, three-parameter fit)?
**A.** The EC50 was 90.2 nM.

**Q.** And the EC50 (MIA PaCa-2, 144 h, read-out: LogEC50, Ext. Fig. 6d (converted), cells expressing 2A2 G352Y354QR/M506T/W374R, log(Concentration)/M, three-parameter fit)?
**A.** Its EC50 is 176 nM.

**Q.** And the EC50 (MIA PaCa-2, 144 h, read-out: LogEC50, Ext. Fig. 6d (converted), cells expressing 2A2 M506T, log(Concentration)/M, three-parameter fit)?
**A.** Its EC50 is 267 nM.

**Q.** And the EC50 (MIA PaCa-2, 144 h, read-out: LogEC50, Ext. Fig. 6d (converted), cells expressing 2A2 W374R/M506T, log(Concentration)/M, three-parameter fit)?
**A.** Its EC50 is 191 nM.

**Q.** And the EC50 (MIA PaCa-2, read-out: EC50 (nM), MIA PaCa-2 cell lysis by Vγ9Vδ2 T cells exposed to HMBPP, 2A1 WT)?
**A.** Its EC50 is 90.3 nM.

**Q.** And the EC50 (MIA PaCa-2, read-out: EC50 (nM), MIA PaCa-2 cell lysis by Vγ9Vδ2 T cells exposed to HMBPP, active chimera bearing G352Y354QR/ M506T/W374R)?
**A.** Its EC50 is 176 nM.

**Q.** And the EC50 (MIA PaCa-2, read-out: EC50 (nM), MIA PaCa-2 cell lysis by Vγ9Vδ2 T cells exposed to HMBPP, active chimera bearing W374R/M506T)?
**A.** The EC50 was 191 nM.

**Q.** And the EC50 (MIA PaCa-2, read-out: EC50 (μM) of Vγ9Vδ2 T cells towards BTN2A−/− MIA PaCa-2 in the presence of HMBPP, NT cells)?
**A.** The EC50 was 12800 nM.

**Q.** What about the EC50 (MIA PaCa-2, read-out: EC50 (μM) of Vγ9Vδ2 T cells towards BTN2A−/− MIA PaCa-2 in the presence of HMBPP, transfected 2A1 WT) of the same molecule?
**A.** Its EC50 is 800 nM.

**Q.** And the EC50 (MIA PaCa-2, read-out: EC50 (μM) of Vγ9Vδ2 T cells towards BTN2A−/− MIA PaCa-2 in the presence of HMBPP, transfected 2A1 variant D455G/E457R)?
**A.** The EC50 was 61100 nM.

**Q.** And the EC50 (MIA PaCa-2, read-out: EC50 (μM) of Vγ9Vδ2 T cells towards BTN2A−/− MIA PaCa-2 in the presence of HMBPP, transfected 2A1 variant R477A)?
**A.** Its EC50 is 19700 nM.

**Q.** And the EC50 (MIA PaCa-2, read-out: EC50 (μM) of Vγ9Vδ2 T cells towards BTN2A−/− MIA PaCa-2 in the presence of HMBPP, transfected 2A1 variant T510A)?
**A.** The EC50 was 1.17e+06 nM.

**Q.** What about the EC50 (MIA PaCa-2, read-out: EC50 (μM) of Vγ9Vδ2 T cells towards BTN2A−/− MIA PaCa-2 in the presence of HMBPP, transfected 2A1 variant T510M) of the same molecule?
**A.** The EC50 was 97700 nM.

**Q.** And the EC50 (MIA PaCa-2, read-out: EC50 (μM) of Vγ9Vδ2 T cells towards BTN2A−/− MIA PaCa-2 in the presence of HMBPP, transfected 2A1 variant V511A)?
**A.** The EC50 was 130000 nM.

**Q.** And the EC50 (MIA PaCa-2, read-out: EC50 (μM) of Vγ9Vδ2 T cells towards BTN2A−/− MIA PaCa-2 in the presence of HMBPP, transfected 2A1 variant V511D)?
**A.** The EC50 was 12500 nM.

**Q.** And the EC50 (MIA PaCa-2, read-out: EC50 (μM) of Vγ9Vδ2 T cells towards BTN2A−/− MIA PaCa-2 in the presence of HMBPP, transfected 2A1 variant V511W)?
**A.** Its EC50 is 389000 nM.

**Q.** And the EC50 (MIA PaCa-2, read-out: EC50 (μM) of Vγ9Vδ2 T cells towards BTN2A−/− MIA PaCa-2 in the presence of HMBPP, transfected 2A1 variant ΔC)?
**A.** Its EC50 is 17500 nM.

**Q.** What about the EC50 (MIA PaCa-2, read-out: EC50, MIA PaCa-2 lysis, BTN2A−/− MIA PaCa-2 stably expressing BTN2A1 WT) of the same molecule?
**A.** Its EC50 is 12.9 nM.

**Q.** What about the EC50 (MIA PaCa-2, read-out: EC50, best-fit value, 2A1 WT, unit not printed in the sheet (b166 prints […])) of the same molecule?
**A.** The EC50 was 12.9 nM.

**Q.** What about the EC50 (MIA PaCa-2, read-out: EC50, best-fit value, 2A1 ∆C, unit not printed in the sheet (b166 prints […])) of the same molecule?
**A.** Its EC50 is 43900 nM.
